The values that follow come from patent publication US20100279941A1, “CD36 MODULATION AND USES THEREOF” (priority 2009, published 2010).

Common to all, as to format: in vivo
For experiment [1], the system named is CD36^+/+ and CD36^−/− mice. The experiment is described as follows: Myocardial NEFA uptake by μPET with [18F]-FTHA. As to conditions: 6 hours reperfusion, in words. The method, then: (§1) Experimental model of IHD: Transient left coronary artery ligation in vivo. Mice were subjected to a transient LCAL surgery as described before, with minor modifications [Tarnayski et al., 2004]. Mice were injected i.p. with buprenorphine (0.05 mg/kg) and placed in an induction chamber with inhalation anesthesia comprised of 3% isoflurane mixed with 100% oxygen. Mice were intubated with a blunt ended 20-gauge catheter into the trachea via the mouth and mechanically ventilated at a tidal volume of 7 ml/kg at 130 respirations/min with a MiniVent™ mouse ventilator (model 845, Harvard Apparatus, Saint-Laurent, QC, Canada). Anesthesia was maintained with 1.5-2% isoflurane and the animals were kept warm using electrical heating pads during the surgical procedure. The chest was opened by a horizontal incision through the skin and muscle layers at the third intercostal space exposing the left side of the heart. […] Visual blanching distal to the coronary occlusion confirmed myocardial ischaemia. Lidocaine (6 mg/kg) was administered i.p. just following occlusion and prior to reperfusion. After 30 minutes, the PE10 tubing was removed allowing reperfusion. The lungs were reinflated and the chest wound closed layer by layer before extubation. At 6 hours following reperfusion, mice were anesthetized (isoflurane), a blood sample withdrawn, and the heart arrested in diastole by an intravenous injection of 1 M KCl (0.5 mL). Hearts were immediately frozen at −80° C. unless otherwise stated.
Imaging experiments. Imaging experiments were performed with the avalanche photodiode-based small animal PET scanner (μPET) [Lecomte et al., 1996]. […]
(§2) Imaging Data Analysis. For [^11C]-acetate images, dynamic series of 25 frames each were sorted out whereas 27 frames were used for ^18FDG and ^18FTHA imaging, and were reconstructed and analyzed using multicompartmental analysis [Menard et al., 2009] or the Patlak method for FTHA [Patlak and Blasberg, 1985]. […]
Plasma and tissue assays. Plasma insulin, triglyceride (TG) and NEFA levels were measured as previously described [Menard et al., 2009]. […]

The subject of experiment [2] is CD36^+/+ and CD36^−/− mice. The experiment is described as follows: Ventricular and ejection volumes by ECG-gated μPET after transient myocardial ischemia. As to conditions: EP 80317-treated WT mice vs 0.9% NaCl. The method, then:
as §1
Imaging experiments. Imaging experiments were performed with the avalanche photodiode-based small animal PET scanner (μPET) [Lecomte et al., 1996]. Before imaging, the heart position was localized with a Doppler probe (0.64 cm, 9 MHz; Parks Medical Electronics). […]
as §2

The test system of experiment [3] is CD36^+/+ and CD36^−/− mice. Briefly: Area at risk and infarct size after 30-min LCAL and 48 hours reperfusion (Evans blue/TTC).
Source text: Animals. CD36^−/− mice were generated by targeted homologous recombination and backcrossed six times to C57BI/6. Wild-type control littermates (CD36^+/+) were bred from the same cross and were therefore of identical genetic background [Febbraio et al., 2000]. Male mice, aged 23 (±1) weeks, were used for experiments. They were fed standard chow (#5075, Charles Rivers, Saint-Constant, Québec, Canada) and water ad libitum, and housed singly during treatment periods (2 or 10 weeks). Daily pharmacological treatments with 300 μg/kg of EP 80317 or CP1A(IV) or vehicle (0.9% NaCl) were done by subcutaneous (s.c.) injections.
C57BU6 mice were bred in house. Male mice, aged 23 (±1) weeks, were used for experiments. They were fed standard chow (#5075, Charles Rivers, Saint-Constant, Québec, Canada) and water ad libitum, and housed singly during treatment periods (2 weeks). Daily pharmacological treatments with 300 μg/kg (289 nmol/kg) of EP 80317 or 289 nmol/kg of CP-3(IV), 289 nmol/kg of CP-AP-4 or vehicle (0.9% NaCl) were done by subcutaneous (s.c.) injections.
as §1
Evaluation of area at risk and infarct size. Two days after reperfusion, the left anterior descending (LAD) coronary artery was re-occluded at the original site and the abdominal aorta was injected retrogradly with 5% Evans blue dye to delineate the AAR by the absence of dark blue staining. The left ventricle, including the interventricular septum, was dissected and cut into transverse 1-mm slices from the apex to the base, using an acrylic matrix (Alto Inc., Hatfield, Pa., USA). The slices were incubated in 1% triphenyltetrazolium chloride solution at 37° C. for 15 min and placed in 10% neutral buffered formalin for 12 hours. Each slice was weighed and photographed on both sides with a digital camera (Nikon, Coolpix™ 4500, Mississauga, Ontario, Canada). The total LV area, AAR and IA were determined for each side of a slice by planimetric analysis using Adobe CS3 Photoshop™ software (Ottawa, ON, Canada), and averaged. The infarct weight was determined as follows: [(A1×WT1)+(A2×WT2)+(A3×WT3)+(A4×WT4) . . . ] where A and WT are the infarct area and weight of the section, respectively. The AAR weight was calculated in a similar manner, but by subtracting the blue (viable) stained zone from the weight. The results are expressed in terms of % IA/AAR, IA/LV and AAR/LV.

The mark [4] stands for this setting: 2-week treatment 300 μg/kg/d, CD36^+/+ mice, 48 hours reperfusion, p<0.05 vs vehicle.

Regarding “HAIC-2MeDTrp-DLys-Trp-DPhe-Lys-NH2 [EP 80317]”, in experiment [1] (CD36^+/+ mice), the “total plasma NEFA uptake (Km)” value was “reduced”. The “mean fractional uptake rate (Ki) of plasma NEFA” value in experiment [1] (CD36^+/+ or CD36^−/− mice) is on record as “not affected”. For the same substance, the “net fatty acid uptake (Km)” value in experiment [1] (CD36^−/− mice) is reported as “not modulated”. Moreover, the “increase of end-systolic ventricular volume” value in experiment [2] turned out to be 26%. Moreover, in experiment [2] (p<0.01), the “increase of end-diastolic ventricular volume” value is 31% and the “increase of stroke volume” value was 33%. Also, in experiment [3] (setting [4]), the “reduction of IA/AAR ratio” value stood at 31% and the “reduction of IA/LV ratio” value was determined as 34%. Besides, the area-at-risk in experiment [3] (CD36^+/+ (C57BL/6) mice, 289 nmol/kg 2 weeks, 48 hours reperfusion, mean (±SE)) is listed as 51 (±5) %. The “reduction of IA/LV ratios” value in experiment [3] (CD36^+/+ (C57BL/6) mice, 289 nmol/kg 2 weeks, 48 hours reperfusion, p<0.001 vs 0.9% NaCl) was 48%. Besides, the “effect on infarct size” value in experiment [3] (CD36^−/− mice, 48 hours reperfusion, in words) is recorded as “did not modulate”. In experiment [3] (pretreatment 14 days, both CD36^+/+ and CD36^−/− mice, in words), the “effect on AAR/LV” value is “did not modulate”.
